Measured values from patent US12503483B2, “Gemcitabine amphiphile prodrugs” (NANOMED HOLDINGS PTY LTD, priority 2018, dated 2025).
pIC50: −log10 of the molar value. Where two headings read alike, the source gives them in different places.

Columns and labels:
[1] = Water penetration scan by polarized optical microscopy (POM); type: physicochemical; conditions: for Appearance of the Lyotropic phase at excess water (25° C.-50° C.): POM, equilibration 1 h; for Lyotropic phase formed in water penetration scan: neat amphiphile to pure water gradient, temperature as worded
Method: Polarized Optical Microscopy (POM): Samples used for Polarized Optical Microscopy (POM) were prepared by placing a small amount of prodrug amphiphile on a microscope slide and covered with a cover slip. Water was placed on the edges of the cover slip and allowed to flow into the sample by capillary action. The microscope slide was placed in a Linkam PE94 hot stage (Linkam Scientific Instruments Ltd. Surrey, England) and heated at 3° C./min between room temperature and 50° C. […] Images were captured with a Nikon DS-Ri-1 camera. All images were taken at 100× magnification.
(§1) The results of the water penetration scans and SAXS are summarised in Tables 1 and 2 and indicate that various self-assembled lyotropic liquid crystalline phases were formed for the different Gem apmphiphiles, with a broad range of mesophases from lamellar crystalline structure to lamellar liquid crystalline, cubic mesophases and sponge mesophases.
The textures obtained from water penetration scans along the established concentration gradient from neat amphiphile to pure water provide a quick insight into the lyotropic phase behaviour of a surfactant/water system. Melted neat amphiphile was placed on a microscopic slide and water was then introduced around the edge.

[2] = SAXS phase behaviour of hydrated Gem amphiphiles; type: physicochemical; conditions: equilibration 48 h
Method: SAXS analyses of the bulk and lyotropic phases of the amphiphiles were performed on a Bruker NanoSTAR laboratory SAXS instrument (Brucker AXS, Kalsruhe, Germany).
The equilibrated lyotropic phases were placed into a demountable button sample cells. For the analysis of the dispersions, a multi-capillary holder was used. Button cells and capillary holder interchangeably fit into a block setup that was temperature-controlled with a Peltier heater-cooler system. 2D scattering images were radially averaged to conventional 1 D scattering plots and as a function of the q value (Å-1) where q is the length of the scattering vector which was calculated using the formula q=(4π/λ)sin(θ/2), where A is the wavelength and 6 is the scattering angle.
The mesophases formed were determined by indexing peaks using the reflection laws as described by De Campo et al., Langmuir, 2004. 20(13), 5254-5261. Small angle X-ray scattering patterns of emulsions and liposomes display large broad peaks while liquid crystalline phases of highly ordered nanostructured particles such as cubosomes and hexosomes display distinct sharp peaks. The relative positions of the peaks (“spacing”) allows for the elucidation of the symmetry of the structure. The interplanar distance (d) between two reflecting planes may be calculated using the formula d=(2π)/q, where q is the absolute position of the peak. This, in turn allows for the calculation of the lattice parameter (a), the size of the unit cell, to be calculated.
as §1

CACO2 cell line = assay: MTS cytotoxicity assay, 72 hours; type: cell-based; conditions: prodrugs as nanoparticle dispersions
Method: (§2) The cytotoxicity of gemcitabine nanoparticles dispersion made from gemcitabine amphiphiles in the presence or absence of DMPC-cholesterol was evaluated in comparison to gemcitabine alone in several pancreatic cell lines including CF Pac-1, BxPC3, Panc-1 and MIA PaCa-2, MCF7and CACO2 cell lines. The cell lines were exposed to media with varying concentrations of the treatments (100-0.001 μM) and incubated for 72 hours. Cell viability was determined using the MTS assay and was conducted in triplicate to derive the IC50 values.

CFPAC-1 cell line [3] = assay: MTS cytotoxicity assay, 72 hours; type: cell-based; conditions: CFPAC-1, 72 hours, prodrugs as nanoparticle dispersions
Method: as §2

MCF7 cell line = assay: MTS cytotoxicity assay, 72 hours; type: cell-based; conditions: MCF7, 72 hours, prodrugs as nanoparticle dispersions
Method: as §2

[4] = tested on: Carboxylesterase from porcine liver; assay: In-situ enzymatic bioconversion of prodrug nanoparticles (LC/MS); type: in vitro ADME; conditions: DMPC/cholesterol nanoparticles, 50 uM prodrug, 33.7 units/mL, 37° C.; for Bioconversion to Gemcitabine: FIG. 7b
Method: Nanoparticle dispersions of a mixture of Dimyristoylphosphatidylcholine and cholesterol with either (i) Gemcitabine-Phytanyl, (ii) Gemcitabine-PEG3-oleoyl or (iii) Gemcitabine-PEG3-oleoylamide were made at […] concentration of Gemcitabine prodrugs. Carboxylesterase solution from porcine liver obtained from Sigma-Aldrich was added to the nanoparticle dispersions, and the enzyme concentration in each respective nanoparticle dispersion was set to 33.7 units/mL.
The time at which the enzyme solution was added was taken as time zero for the hydrolysis reaction. The mixture was maintained at 37° C. throughout the experiment. The concentration of the hydrolysis product was measured at various time intervals using LC/MS and LC/MS^2 for the detection of prodrug converted to the active drug Gemcitabine. The time at which the sample was injected into the LC column was taken to be the reaction time for such sample. The hydrolysis progress curve, showing the decrease in the concentration of original substrate was plotted against time, whereas the bioconversion to Gemcitabine was determined by MS^2 methods. Standard curves for both prodrugs and the active bioconverted gemcitabine was assessed by using standard samples.
Thermo Finnigan (Finnigan LCQ Series, Thermo Scientific, USA) LC/MS equipped with an electron spray ionization (ESI) was used to assess the enzymatic reaction using both MS and MS^2 mode. The prodrug depletion was detected by negative ion for MS. The conversion of the prodrug to the Gemcitabine was detected by MS^2 at 112.1. 10 μl of sample withdrawn from the reaction solution was injected directly into a Phenomenex C8 150 mm×2 mm 5 uLuna column (Phenomenex, Australia). A 100% Methanol solution was used as mobile phase with the flow rate of 0.5 ml/min. The sample after the column separation was eluted to ESI source. The capillary temperature and ion spray voltage were set at 350° C. and 4.60 respectively. The sample temperature was well maintained at 37° C. during the entire measurement by incubating the samples in the temperature controlled auto-sampler. Data were acquired and processed with Xcalibur Quan chromatography software.
The decreased prodrug was calculated as the percentage of the area under the peak of Gemcitabine-prodrug compared to that before addition of the enzyme. The amount of Gemcitabine produced, was calculated from the area under the peak at 3.4 min related to Gemcitabine at 263 and its MS^2 at 112.1.

BxPC3 cell line = assay: MTS cytotoxicity assay, 72 hours; type: cell-based; conditions: Homo sapiens, BXPC-3, BxPC3, 72 hours
Method: as §2

MIAPaCa-2 cell line = assay: MTS cytotoxicity assay, 72 hours; type: cell-based; conditions: Homo sapiens, MIA PaCa-2, MIAPaCa-2, 72 hours
Method: as §2

PANC-1 cell line = assay: MTS cytotoxicity assay, 72 hours; type: cell-based; conditions: Homo sapiens, PANC-1, 72 hours
Method: as §2

[5] = tested on: CFPAC-1 cell line-derived xenograft; assay: In vivo tumour inhibition, CFPAC-1 xenograft; parameters: species or system mice
Method: All treatments were administered via IV injection twice a week for four weeks. The amount of gemcitabine administered in the Gem nanoparticles was 4.45 mg/kg, which is an order of magnitude less than the ordinary dose used in clinic. The doses were equimolar with the gemcitabine control group in order to allow for a direct comparison of the anti-tumour efficacy between groups. The amount of total lipid injected was 1 mg/dose. Gemcitabine is administered intravenously at a dose of 1000 mg/m2 to treat pancreatic cancer in humans. The dose administered here is equivalent to 13.35 mg/m2 of gemcitabine being injected into humans; 1.33% of the clinical dose of gemcitabine in humans. In other studies, the amount of gemcitabine injected into mice in vivo studies has ranged from 7-100 mg/kg.
At the end of the study, the tumours were harvested.

CFPAC-1 cell line [6] = conditions: 72 hours; read-out: IC50 of gemcitabine against the CFPAC-1 cell line; cited from earlier work

Appearance of the Lyotropic phase at excess water (25° C.-50° C.) [1]	Lyotropic phase lattice parameter ([2]; 25° C.) [Å]	Lyotropic phase lattice parameter ([2]; 37° C.) [Å]	Lyotropic phase ([2]; 25° C.)	Lyotropic phase ([2]; 37° C.)	Prodrug reduction (hydrolysis) by CES enzyme [4]	SMILES	also measured
A birefringent band (LC)	53.2 ± 0.5	53.2 ± 0.5				CCCCC/C=C\C/C=C\CCCCCCCCOC(=O)Nc1ccn([C@@H]2O[C@H](CO)[C@@H](O)C2(F)F)c(=O)n1 (relative stereo) [Gem-Lin, 2′-deoxy-2′,2′-difluoro-N4-(((cis-9,12,octadecadienenyl)oxy)carbonyl) cytidine]	
Anisotropic band						CCCCCCCC/C=C\CCCCCCCCOC(=O)Nc1ccn([C@@H]2O[C@H](CO)[C@@H](O)C2(F)F)c(=O)n1 (relative stereo) [Gem-Ole, 2′-deoxy-2′,2′-difluoro-N4-(((cis-9, octadecenyl)oxy)carbonyl) cytidine]	Lyotropic phase formed in water penetration scan [1]: traditional lamellar (La) phase at room temperature and 3D cubic (Pn3m) phase at elevated temperatures above 33 °C
An isotropic band, emulsion			Sponge phase (L3)	Sponge phase (L3)		CCCCC/C=C\C/C=C\CCCCCCCC(=O)OCCOCCOCCOC(=O)Nc1ccn([C@@H]2O[C@H](CO)[C@@H](O)C2(F)F)c(=O)n1 (relative stereo) [Gem-PEG3-linoleoyl, 2′-deoxy-2′,2′-difluoro-N4-((((cis-9, cis-12-octadecadienoyl)-oxy-triethyleneglycol)oxy)carbonyl) cytidine]	pIC50 (CACO2 cell line; CACO2, 72 hours): 6.70; pIC50 (CFPAC-1 cell line [3]): 6.23; pIC50 (MCF7 cell line): 7.00
					reduced at a lower rate	CCCCCCCC/C=C\CCCCCCCC(=O)NCCOCCOCCOC(=O)Nc1ccn([C@@H]2O[C@H](CO)[C@@H](O)C2(F)F)c(=O)n1 (relative stereo) [Gem-PEG3-oleoylamide, 2′-deoxy-2′,2′-difluoro-N4-((((cis-9, octadecenoyl)amino-triethyleneglycol)oxy)carbonyl) cytidine]	Time of prodrug reduction ([4]; FIG. 7a): 6 h; Bioconversion to Gemcitabine [4]: produced Gemcitabine sustainably
Emulsion			Sponge phase (L3)			CC/C=C\C/C=C\C/C=C\CCCCCCCC(=O)OCCOCCOCCOCCOCCOCCOC(=O)Nc1ccn([C@@H]2O[C@H](CO)[C@@H](O)C2(F)F)c(=O)n1 (relative stereo) [Gem-PEG6-linolenoyl, 2′-deoxy-2′,2′-difluoro-N4-((((cis-9, 12, 15 octadecatrienoyl)-oxy-hexaethyleneglycol)oxy)carbonyl) cytidine]	
An isotropic band, cubic phase	125.2 ± 0.5	124.4 ± 0.5	Ia3d	Ia3d		CCCCCCCC/C=C\CCCCCCCC(=O)OCCOCCOCCOCCOCCOCCOC(=O)Nc1ccn([C@@H]2O[C@H](CO)[C@@H](O)C2(F)F)c(=O)n1 (relative stereo) [Gem-PEG6-oleoyl, 2′-deoxy-2′,2′-difluoro-N4-((((cis-9, octadecenoyl)-oxy-hexaethyleneglycol)oxy)carbonyl) cytidine]	
An isotropic band	135.8 ± 0.5	135.8 ± 0.5	Ia3d	Ia3d	slowest prodrug to reduce completely	CC(C)CCCC(C)CCCC(C)CCCC(C)CCOC(=O)Nc1ccn([C@@H]2O[C@H](CO)[C@@H](O)C2(F)F)c(=O)n1 (stereo partly shown) [Gem-Phy, 2′-deoxy-2′,2′-difluoro-N4-(((3,7,11,15-tetramethyl-hexadecyl)oxy)carbonyl) cytidine]	Lyotropic phase formed in water penetration scan [1]: 3D inversed bicontinous cubic phase (Pn3m space group) initially and then transform to 2D hexagonal phase
						Nc1ccn([C@@H]2O[C@H](CO)[C@@H](O)C2(F)F)c(=O)n1 [Gemcitabine, 2′,2′-difluoro-2′-deoxycytidine]	pIC50 (BxPC3 cell line): 7.65; pIC50 (CACO2 cell line; Homo sapiens, Caco-2, CACO2, 72 hours): 7.30; pIC50 (CFPAC-1 cell line [3]; Homo sapiens): 7.19; pIC50 (MCF7 cell line; Homo sapiens): 8.22; pIC50 (MIAPaCa-2 cell line): 7.64; pIC50 (PANC-1 cell line): < 4.00; Tumour size trend over time ([5]; 4.45 mg/kg gemcitabine equimolar, IV twice a week for four weeks): increased in size, however at a slower rate compared with the control PBS group; Tumour volume as % of control tumour size ([5]; 4.45 mg/kg gemcitabine equimolar, IV twice a week for four weeks, 34 days): 54%; Average ex-vivo tumour weight, order of groups ([5]; end of study, control vs nanoparticles p<0.05): control group>Gemcitabine group>Gemcitabine nanoparticles; pIC50 (CFPAC-1 cell line [6]): 7.48 to 8.21

SMILES	Appearance of the Lyotropic phase at excess water (25° C.-50° C.) [1]	Lyotropic phase lattice parameter ([2]; 25° C.) [Å]	Lyotropic phase lattice parameter ([2]; 37° C.) [Å]	Lyotropic phase ([2]; 25° C.)	Lyotropic phase ([2]; 37° C.)	Prodrug reduction (hydrolysis) by CES enzyme [4]	also measured
CCCCCCCC/C=C\CCCCCCCC(=O)OCCOCCOCCOC(=O)Nc1ccn([C@@H]2O[C@H](CO)[C@@H](O)C2(F)F)c(=O)n1 (relative stereo) [Gem-PEG3-oleoyl, 2′-deoxy-2′,2′-difluoro-N4-((((cis-9, octadecenoyl)oxy-triethyleneglycol)oxy)carbonyl) cytidine]	Birefringent ( lamellar)	55.26 ± 0.5	55.26 ± 0.5			reduced to Gem-PEG3 and the oleic acid quickly	Bioconversion to Gemcitabine [4]: bioconverted Gemcitabine very slowly
